Laboratory results from patent US20100267561A1, “HERBICIDAL PYRIDAZINONE DERIVATIVES” (priority 2007, published 2010).

Tests used:
Assay in all cases: Test E pre-/postemergence plant response
Format in all cases: in vivo
Details in all cases: scale 0 to 100
[1] = test system: bermudagrass (Cynodon dactylon)
Method in brief: (§1)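 Ratings of 0 (no effect) through 100 (complete control) came from visual evaluation against untreated plants after a 14- to 21-day greenhouse period. Compound in a non-phytotoxic solvent/surfactant mixture was applied preemergence to seeds and postemergence to plants at the 1- to 4-leaf stage.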

[2] = test system: black mustard (Brassica nigra)
Method in brief: as §1

[3] = test system: broadleaf signalgrass (Brachiaria platyphylla)
Method in brief: as §1

[4] = test system: common mallow (Malva sylvestris)
Method in brief: as §1

[5] = test system: common purslane (Portulaca oleracea)
Method in brief: as §1

[6] = test system: dallisgrass (Paspalum dilatatum)
Method in brief: as §1

[7] = test system: goosegrass (Eleusine indica)
Method in brief: as §1

[8] = test system: green foxtail (Setaria viridis)
Method in brief: as §1

[9] = test system: guineagrass (Panicum maximum)
Method in brief: as §1

[10] = test system: itchgrass (Rottboellia cochinchinensis)
Method in brief: as §1

[11] = test system: large crabgrass (Digitaria sanguinalis)
Method in brief: as §1

[12] = test system: purple nutsedge (Cyperus rotundus)
Method in brief: as §1

[13] = test system: quackgrass (Elytrigia repens)
Method in brief: as §1

[14] = test system: surinam grass (Brachiaria decumbens)
Method in brief: as §1

With `COC(=O)Oc1cnn(C)c(=O)c1-n1nc(-c2ccc(Cl)cc2)cc1C` [Compound 33] the “Plant response rating, Bermudagrass” value ([1]; 8 g ai/ha, Preemergence) was 90, the “Plant response rating, Bermudagrass” value ([1]; 16 g ai/ha, Preemergence) was 90 and the “Plant response rating, Bermudagrass” value ([1]; 31 g ai/ha, Preemergence) was 98. The “Plant response rating, Bermudagrass” value ([1]; 62 g ai/ha, Preemergence) was 100, the “Plant response rating, Bermudagrass” value ([1]; Postemergence, 8 g ai/ha) was 70 and the “Plant response rating, Bermudagrass” value ([1]; Postemergence, 16 g ai/ha) was 80. For the same molecule, the “Plant response rating, Bermudagrass” value ([1]; Postemergence, 31 g ai/ha) was 90, the “Plant response rating, Bermudagrass” value ([1]; Postemergence, 62 g ai/ha) was 95 and the “Plant response rating, Mustard, Black” value ([2]; 8 g ai/ha, Preemergence) was 0. For the same molecule, the “Plant response rating, Mustard, Black” value ([2]; 16 g ai/ha, Preemergence) was 0, the “Plant response rating, Mustard, Black” value ([2]; 31 g ai/ha, Preemergence) was 0 and the “Plant response rating, Mustard, Black” value ([2]; 62 g ai/ha, Preemergence) was 0. For the same molecule, the “Plant response rating, Mustard, Black” value ([2]; Postemergence, 8 g ai/ha) was 0, the “Plant response rating, Mustard, Black” value ([2]; Postemergence, 16 g ai/ha) was 0 and the “Plant response rating, Mustard, Black” value ([2]; Postemergence, 31 g ai/ha) was 0. The “Plant response rating, Mustard, Black” value ([2]; Postemergence, 62 g ai/ha) was 0, the “Plant response rating, Signalgrass” value ([3]; 16 g ai/ha, Preemergence) was 75 and the “Plant response rating, Signalgrass” value ([3]; 31 g ai/ha, Preemergence) was 98. For the same molecule, the “Plant response rating, Signalgrass” value ([3]; 62 g ai/ha, Preemergence) was 100, the “Plant response rating, Signalgrass” value ([3]; Postemergence, 8 g ai/ha) was 75 and the “Plant response rating, Signalgrass” value ([3]; Postemergence, 16 g ai/ha) was 75. The “Plant response rating, Signalgrass” value ([3]; Postemergence, 31 g ai/ha) was 95, the “Plant response rating, Signalgrass” value ([3]; Postemergence, 62 g ai/ha) was 100 and the “Plant response rating, Mallow” value ([4]; 16 g ai/ha, Preemergence) was 0. The “Plant response rating, Mallow” value ([4]; 31 g ai/ha, Preemergence) was 0, the “Plant response rating, Mallow” value ([4]; 62 g ai/ha, Preemergence) was 0 and the “Plant response rating, Mallow” value ([4]; Postemergence, 8 g ai/ha) was 0. The “Plant response rating, Mallow” value ([4]; Postemergence, 16 g ai/ha) was 0, the “Plant response rating, Mallow” value ([4]; Postemergence, 31 g ai/ha) was 0 and the “Plant response rating, Mallow” value ([4]; Postemergence, 62 g ai/ha) was 0. For the same molecule, the “Plant response rating, Purslane” value ([5]; 16 g ai/ha, Preemergence) was 0, the “Plant response rating, Purslane” value ([5]; 31 g ai/ha, Preemergence) was 0 and the “Plant response rating, Purslane” value ([5]; 62 g ai/ha, Preemergence) was 0. For the same molecule, the “Plant response rating, Purslane” value ([5]; Postemergence, 8 g ai/ha) was 0, the “Plant response rating, Purslane” value ([5]; Postemergence, 16 g ai/ha) was 0 and the “Plant response rating, Purslane” value ([5]; Postemergence, 31 g ai/ha) was 0. For the same molecule, the “Plant response rating, Purslane” value ([5]; Postemergence, 62 g ai/ha) was 0, the “Plant response rating, Dallisgrass” value ([6]; 8 g ai/ha, Preemergence) was 25 and the “Plant response rating, Dallisgrass” value ([6]; 16 g ai/ha, Preemergence) was 50. The “Plant response rating, Dallisgrass” value ([6]; 31 g ai/ha, Preemergence) was 80, the “Plant response rating, Dallisgrass” value ([6]; 62 g ai/ha, Preemergence) was 100 and the “Plant response rating, Dallisgrass” value ([6]; Postemergence, 8 g ai/ha) was 35. The “Plant response rating, Dallisgrass” value ([6]; Postemergence, 16 g ai/ha) was 35, the “Plant response rating, Dallisgrass” value ([6]; Postemergence, 31 g ai/ha) was 65 and the “Plant response rating, Dallisgrass” value ([6]; Postemergence, 62 g ai/ha) was 65. For the same molecule, the “Plant response rating, Goosegrass” value ([7]; 8 g ai/ha, Preemergence) was 75, the “Plant response rating, Goosegrass” value ([7]; 16 g ai/ha, Preemergence) was 98 and the “Plant response rating, Goosegrass” value ([7]; 31 g ai/ha, Preemergence) was 98. For the same molecule, the “Plant response rating, Goosegrass” value ([7]; 62 g ai/ha, Preemergence) was 100, the “Plant response rating, Goosegrass” value ([7]; Postemergence, 8 g ai/ha) was 35 and the “Plant response rating, Goosegrass” value ([7]; Postemergence, 16 g ai/ha) was 35. The “Plant response rating, Goosegrass” value ([7]; Postemergence, 31 g ai/ha) was 75, the “Plant response rating, Goosegrass” value ([7]; Postemergence, 62 g ai/ha) was 75 and the “Plant response rating, Foxtail, Green” value ([8]; 8 g ai/ha, Preemergence) was 40. For the same molecule, the “Plant response rating, Foxtail, Green” value ([8]; 16 g ai/ha, Preemergence) was 65, the “Plant response rating, Foxtail, Green” value ([8]; 31 g ai/ha, Preemergence) was 100 and the “Plant response rating, Foxtail, Green” value ([8]; 62 g ai/ha, Preemergence) was 100. The “Plant response rating, Foxtail, Green” value ([8]; Postemergence, 8 g ai/ha) was 60, the “Plant response rating, Foxtail, Green” value ([8]; Postemergence, 16 g ai/ha) was 65 and the “Plant response rating, Foxtail, Green” value ([8]; Postemergence, 31 g ai/ha) was 75. The “Plant response rating, Foxtail, Green” value ([8]; Postemergence, 62 g ai/ha) was 95, the “Plant response rating, Guineagrass” value ([9]; 16 g ai/ha, Preemergence) was 100 and the “Plant response rating, Guineagrass” value ([9]; 31 g ai/ha, Preemergence) was 100. The “Plant response rating, Guineagrass” value ([9]; 62 g ai/ha, Preemergence) was 100, the “Plant response rating, Guineagrass” value ([9]; Postemergence, 8 g ai/ha) was 80 and the “Plant response rating, Guineagrass” value ([9]; Postemergence, 16 g ai/ha) was 80. The “Plant response rating, Guineagrass” value ([9]; Postemergence, 31 g ai/ha) was 90, the “Plant response rating, Guineagrass” value ([9]; Postemergence, 62 g ai/ha) was 95 and the “Plant response rating, Itchgrass” value ([10]; 16 g ai/ha, Preemergence) was 60. For the same molecule, the “Plant response rating, Itchgrass” value ([10]; 31 g ai/ha, Preemergence) was 80, the “Plant response rating, Itchgrass” value ([10]; 62 g ai/ha, Preemergence) was 80 and the “Plant response rating, Itchgrass” value ([10]; Postemergence, 8 g ai/ha) was 40. For the same molecule, the “Plant response rating, Itchgrass” value ([10]; Postemergence, 16 g ai/ha) was 65, the “Plant response rating, Itchgrass” value ([10]; Postemergence, 31 g ai/ha) was 70 and the “Plant response rating, Itchgrass” value ([10]; Postemergence, 62 g ai/ha) was 75. For the same molecule, the “Plant response rating, Crabgrass, Large” value ([11]; 8 g ai/ha, Preemergence) was 40, the “Plant response rating, Crabgrass, Large” value ([11]; 16 g ai/ha, Preemergence) was 75 and the “Plant response rating, Crabgrass, Large” value ([11]; 31 g ai/ha, Preemergence) was 100. The “Plant response rating, Crabgrass, Large” value ([11]; 62 g ai/ha, Preemergence) was 100, the “Plant response rating, Crabgrass, Large” value ([11]; Postemergence, 8 g ai/ha) was 70 and the “Plant response rating, Crabgrass, Large” value ([11]; Postemergence, 16 g ai/ha) was 75. For the same molecule, the “Plant response rating, Crabgrass, Large” value ([11]; Postemergence, 31 g ai/ha) was 90, the “Plant response rating, Crabgrass, Large” value ([11]; Postemergence, 62 g ai/ha) was 95 and the “Plant response rating, Nutsedge, Purple” value ([12]; 16 g ai/ha, Preemergence) was 0. For the same molecule, the “Plant response rating, Nutsedge, Purple” value ([12]; 31 g ai/ha, Preemergence) was 0, the “Plant response rating, Nutsedge, Purple” value ([12]; 62 g ai/ha, Preemergence) was 0 and the “Plant response rating, Nutsedge, Purple” value ([12]; Postemergence, 8 g ai/ha) was 0. The “Plant response rating, Nutsedge, Purple” value ([12]; Postemergence, 16 g ai/ha) was 0, the “Plant response rating, Nutsedge, Purple” value ([12]; Postemergence, 31 g ai/ha) was 0 and the “Plant response rating, Nutsedge, Purple” value ([12]; Postemergence, 62 g ai/ha) was 0. The “Plant response rating, Quackgrass” value ([13]; 16 g ai/ha, Preemergence) was 20, the “Plant response rating, Quackgrass” value ([13]; 31 g ai/ha, Preemergence) was 20 and the “Plant response rating, Quackgrass” value ([13]; 62 g ai/ha, Preemergence) was 60. The “Plant response rating, Quackgrass” value ([13]; Postemergence, 8 g ai/ha) was 0, the “Plant response rating, Quackgrass” value ([13]; Postemergence, 16 g ai/ha) was 30 and the “Plant response rating, Quackgrass” value ([13]; Postemergence, 31 g ai/ha) was 60. The “Plant response rating, Quackgrass” value ([13]; Postemergence, 62 g ai/ha) was 70, the “Plant response rating, Surinam Grass” value ([14]; 16 g ai/ha, Preemergence) was 98 and the “Plant response rating, Surinam Grass” value ([14]; 31 g ai/ha, Preemergence) was 98. The “Plant response rating, Surinam Grass” value ([14]; 62 g ai/ha, Preemergence) was 100, the “Plant response rating, Surinam Grass” value ([14]; Postemergence, 8 g ai/ha) was 75 and the “Plant response rating, Surinam Grass” value ([14]; Postemergence, 16 g ai/ha) was 75. For the same molecule, the “Plant response rating, Surinam Grass” value ([14]; Postemergence, 31 g ai/ha) was 100 and the “Plant response rating, Surinam Grass” value ([14]; Postemergence, 62 g ai/ha) was 100.
